In series [1] the target is T1, human MMP-3 (Homo sapiens, UniProt P08254).
T1 construct: purchased Calbiochem 444217
The series is described as follows: MMP-3 inhibition test. Type of series: biochemical. The following applies: read-out: Inhibitory activity (IC50, nM) MMP-3. How it is done:
MMP inhibition tests can be carried out, for example, using a fluorescent synthetic substrate based on the methods described in Bickett et al. (D. Mark Bickett et al., Anal. Biochem., 1993, 212, 58-64) and Nagase et al. (H. Nagase et al., J. Biol. Chem., 1994, 269, 20952-20957). The method for each MMP inhibition test is shown below.
90 μL (1.5 ng) of human MMP-3 (Calbiochem #444217) prepared with an assay buffer A was added to 90 μL of a 20 μM fluorescent substrate NFF-3 (MOCAc((7-methoxycoumarin-4-yl)acetyl)-Arg-Pro-Lys-Pro-Val-Glu-Nva-Trp-Arg-Lys(Dnp)-NH2, Peptide Institute Inc., #3168-v) (SEQ ID NO: 4) prepared with an assay buffer B, and reacted at 37° C. for 4 hours. Enzyme activity was then determined by measuring with a fluorescence intensity meter (Labsystems, Fluoroskan Ascent) at an excitation wavelength of 320 nm and a measurement wavelength of 405 nm.
From the enzyme activity in the presence or the absence of the test substance, the inhibition rate was determined, and the 50% inhibitiory concentration (IC50) of the test substance was calculated.

A short description of series [2]: Solubility test in organic solvents (propylene glycol, butylene glycol). Type of series: physicochemical. The conditions noted are these: organic solvent or mixture, thermodynamic from solid. How it is done:
Under room temperature conditions, in a 0.5 mL polypropylene tube, (+)-5-(3,4-difluorophenyl)-5-[(3-methyl-2-oxopyridin-1(2H)-yl)methyl]imidazolidine-2,4-dione and (±)-5-(3,4-difluorophenyl)-5-[(3-methyl-2-oxopyridin-1(2H)-yl)methyl]imidazolidine-2,4-dione measured in advance for a suitable amount were prepared, respectively. In each tube, solvent (Propylene glycol (PG) or butylene glycol (BG)) was added with various amounts, e.g. 10 times, 20 times or 100 times amount of the test compound, and stirred with a vortex mixer. With a table ultrasonic washer set at 37° C., ultrasonication treatment was given for 10 minutes; after warming for an hour in a thermostat chamber, each were kept standing for 24 hours at room temperature. The test solutions were observed by sight to evaluate the states in accordance with the determination criterion given below.
Determination criterion consisted of the following two categories:
“Soluble”: Test compound dissolved; no undissolved substances confirmed by visual observation.
“Insoluble”: Test compound remains undissolved; undissolved substances confirmed by visual observation.

In general, IC50 refers to the midpoint of a concentration-inhibition curve. Usually solubility stands for the concentration that dissolves in the medium under given conditions.

T1 sequence (P08254 100-272 limits assumed): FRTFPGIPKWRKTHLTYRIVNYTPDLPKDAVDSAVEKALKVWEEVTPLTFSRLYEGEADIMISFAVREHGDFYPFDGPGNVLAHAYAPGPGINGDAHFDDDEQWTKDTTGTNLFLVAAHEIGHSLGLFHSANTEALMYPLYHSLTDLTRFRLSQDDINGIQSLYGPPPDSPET

`Cc1cccn(CC2(c3ccc(F)c(F)c3)NC(=O)NC2=O)c1=O` (single isomer, unassigned; (+)) [(+)-5-(3,4-difluorophenyl)-5-[(3-methyl-2-oxopyridin-1(2H)-yl)methyl]imidazolidine-2,4-dione]: the IC50 in series [1] was greater than 10000 nM. Further, in series [2], the solubility at 24 h was greater than 10000 µg/mL.
